Results from patent US20240270762A1, “PENICILLIN-BINDING PROTEIN INHIBITORS” (priority 2021, published 2024).
≈ marks a conversion by molar mass, not a printed value. Read-outs that look alike come from different tables or passages of the source.

Columns and labels:
[1] = test system: P. aeruginosa (ΔmexAB-oprM); experiment: Broth microdilution MIC in iron-depleted CAMHB (IDM); type: cell-based; conditions: Pseudomonas aeruginosa, read-out: Minimum inhibitory concentration, P. aeruginosa ΔmexAB-oprM
A. baumannii PBP1a = target: T1, A. baumannii PBP1a (Acinetobacter baumannii, UniProt A0ABX6CK30); experiment: Bocillin-FL competition binding via gel filtration, A. baumannii PBP1a
T1 sequence (A0ABX6CK30 1-851): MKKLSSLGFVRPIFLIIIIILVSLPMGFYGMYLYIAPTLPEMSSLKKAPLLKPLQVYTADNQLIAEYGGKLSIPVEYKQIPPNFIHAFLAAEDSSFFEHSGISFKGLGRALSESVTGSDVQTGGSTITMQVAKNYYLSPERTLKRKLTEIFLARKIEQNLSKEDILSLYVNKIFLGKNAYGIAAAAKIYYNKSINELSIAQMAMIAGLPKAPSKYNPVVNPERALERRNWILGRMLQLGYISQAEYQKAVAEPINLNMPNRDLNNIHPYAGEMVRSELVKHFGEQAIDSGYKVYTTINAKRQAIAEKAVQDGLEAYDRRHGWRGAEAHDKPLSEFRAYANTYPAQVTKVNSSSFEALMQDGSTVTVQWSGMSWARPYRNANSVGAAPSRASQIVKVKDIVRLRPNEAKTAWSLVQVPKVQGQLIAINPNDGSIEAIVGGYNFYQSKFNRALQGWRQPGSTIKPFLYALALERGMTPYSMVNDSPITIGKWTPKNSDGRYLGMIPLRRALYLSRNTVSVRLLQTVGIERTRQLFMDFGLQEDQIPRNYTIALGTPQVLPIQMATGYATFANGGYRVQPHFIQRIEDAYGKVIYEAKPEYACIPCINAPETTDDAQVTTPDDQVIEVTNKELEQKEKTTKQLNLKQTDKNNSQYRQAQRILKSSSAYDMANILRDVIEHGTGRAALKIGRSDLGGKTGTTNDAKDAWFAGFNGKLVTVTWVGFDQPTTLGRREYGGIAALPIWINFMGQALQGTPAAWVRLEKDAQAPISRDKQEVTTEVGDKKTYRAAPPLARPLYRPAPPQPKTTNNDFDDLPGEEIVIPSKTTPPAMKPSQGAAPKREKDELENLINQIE
How it was run: (§1)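 Enzyme pre-incubated with increasing inhibitor concentrations, then Bocillin-FL added for 15 min further incubation. Bocillin-FL-bound PBP separated by gel filtration and fluorescence read. EC50 from fitting fraction PBP bound vs inhibitor concentration to a Hill-type equation (ymin, ymax, n).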

P. aeruginosa CDC-0054 = experiment: microbe, parasite or virus in culture; type: cell-based; conditions: Pseudomonas aeruginosa, CDC0054, read-out: Minimum inhibitory concentration, P. aeruginosa CDC-0054
P. aeruginosa CDC-0090 = experiment: microbe, parasite or virus in culture; type: cell-based; conditions: Pseudomonas aeruginosa, CDC0090, read-out: Minimum inhibitory concentration, P. aeruginosa CDC-0090
A. baumannii PBP2 = A. baumannii PBP2 (Acinetobacter baumannii, UniProt D0C8Z9); experiment: Bocillin-FL competition binding via gel filtration, A. baumannii PBP2
How it was run: as §1

A. baumannii CDC-0045 = experiment: microbe, parasite or virus in culture; type: cell-based; conditions: Acinetobacter baumannii
P. aeruginosa ATCC 27853 = experiment: microbe, parasite or virus in culture; type: cell-based; conditions: Pseudomonas aeruginosa, ATCC27853, read-out: Minimum inhibitory concentration, P. aeruginosa ATCC 27853
[2] = test system: B. humptydooensis ATCC BAA-2767; experiment: microbe, parasite or virus in culture; type: cell-based; conditions: Burkholderia humptydooensis, ATCCBAA2767, read-out: Minimum inhibitory concentration (MIC), B. humptydooensis ATCC BAA-2767
A. baumannii 1258916 = experiment: microbe, parasite or virus in culture; type: cell-based, Acinetobacter baumannii
[3] = competition binding assay using Bocillin-FL via gel filtration, read-out: A. baumannii PBP1a Potency
[4] = CDC0045, read-out: MIC, A. baumannii CDC-0045
[5] = Acinetobacter baumannii, 1258916, read-out: MIC, A. baumannii 1258916
[6] = CDC0045, read-out: Minimum inhibitory concentration (MIC), A. baumannii CDC-0045
[7] = Acinetobacter baumannii, 1258916, read-out: Minimum inhibitory concentration (MIC), A. baumannii 1258916

Chain of A. baumannii PBP2 (D0C8Z9 whole entry): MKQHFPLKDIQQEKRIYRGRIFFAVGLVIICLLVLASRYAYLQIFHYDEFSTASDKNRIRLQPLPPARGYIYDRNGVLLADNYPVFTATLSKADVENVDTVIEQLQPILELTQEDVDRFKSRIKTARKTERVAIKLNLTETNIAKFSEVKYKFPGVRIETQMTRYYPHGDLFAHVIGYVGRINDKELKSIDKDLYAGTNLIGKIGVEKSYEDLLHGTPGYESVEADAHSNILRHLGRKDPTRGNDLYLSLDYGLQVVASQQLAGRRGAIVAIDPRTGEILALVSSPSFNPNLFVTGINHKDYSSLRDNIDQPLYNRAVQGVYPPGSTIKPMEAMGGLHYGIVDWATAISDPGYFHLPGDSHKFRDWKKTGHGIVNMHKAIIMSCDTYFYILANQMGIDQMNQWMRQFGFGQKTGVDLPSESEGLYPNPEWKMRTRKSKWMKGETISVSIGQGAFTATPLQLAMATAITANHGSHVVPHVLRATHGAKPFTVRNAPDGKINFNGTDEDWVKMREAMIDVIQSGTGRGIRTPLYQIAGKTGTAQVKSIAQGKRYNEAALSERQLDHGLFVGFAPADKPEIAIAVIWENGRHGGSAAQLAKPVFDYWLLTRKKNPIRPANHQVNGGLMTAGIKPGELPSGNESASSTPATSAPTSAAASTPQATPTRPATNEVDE

SMILES	MIC ([1]; iron-depleted CAMHB (IDM), […])	EC50 (A. baumannii PBP1a; [3])	MIC (P. aeruginosa CDC-0054)	MIC (P. aeruginosa CDC-0090)	EC50 (A. baumannii PBP2)	MIC (A. baumannii CDC-0045; [4])	MIC (P. aeruginosa ATCC 27853)	MIC [2]	MIC (A. baumannii 1258916; [5])	MIC [1]	MIC (A. baumannii CDC-0045; [6])	MIC (A. baumannii 1258916; [7])	EC50 (A. baumannii PBP1a)
O=C(O)c1c(F)ccc2c1OB(O)[C@@H](NC(=O)[C@H](NC(=O)N1CCN(C3CCN(C(=O)c4cc(O)cc(O)c4)CC3)C1=O)c1cc(F)c(O)c(O)c1Cl)C2 (single isomer, unassigned) [Example 442]	< 1 µg/mL	< 10 µM	< 1 µg/mL	< 1 µg/mL	< 10 µM	< 1 µg/mL	< 1 µg/mL	< 1 µg/mL	< 1 µg/mL	–	–	–	–
O=C(O)c1cccc2c1OB(O)[C@@H](NC(=O)[C@H](NC(=O)N1CCN(Cc3cc(F)c(O)c(O)c3Cl)C(=O)C1=O)c1ccc(P(=O)(O)O)cc1)C2 [Example 504, (R)-3-((R)-2-(4-(2-chloro-5-fluoro-3,4-dihydroxybenzyl)-2,3-dioxopiperazine-1-carboxamido)-2-(4-phosphonophenyl)acetamido)-2-hydroxy-3,4-dihydro-2H-benzo[e][1,2]oxaborinine-8-carboxylic acid]	–	< 10 µM	< 1 µg/mL	< 1 µg/mL	< 10 µM	–	< 1 µg/mL	< 1 µg/mL	–	< 1 µg/mL	< 1 µg/mL	< 1 µg/mL	–
O=C(O)c1c(F)ccc2c1OB(O)[C@@H](NC(=O)[C@H](NC(=O)N1CCN(C3CCN(Cc4cccnc4)CC3)C1=O)c1cc(F)c(O)c(O)c1Cl)C2 [Example 492, (R)-3-((R)-2-(2-chloro-5-fluoro-3,4-dihydroxyphenyl)-2-(2-oxo-3-(1-(pyridin-3-ylmethyl)piperidin-4-yl)imidazolidine-1-carboxamido)acetamido)-7-fluoro-2-hydroxy-3,4-dihydro-2H-benzo[e][1,2]oxaborinine-8-carboxylic acid]	< 1 µg/mL	–	< 1 µg/mL	< 1 µg/mL	10 to 50 µM	–	< 1 µg/mL	< 1 µg/mL	–	–	< 1 µg/mL	< 1 µg/mL	< 10 µM
O=C(O)c1c(F)ccc2c1OB(O)[C@@H](NC(=O)[C@@H](NC(=O)N1CCN(C3CCN(C(=O)c4ccc(O)cc4)CC3)C1=O)c1cc(F)c(O)c(O)c1Cl)C2 (single isomer, unassigned) [Example 462]	2 to 4 µg/mL (≈ 2.64 to 5.28 µM)	< 10 µM	8 to 16 µg/mL (≈ 10.6 to 21.1 µM)	–	–	32 to 64 µg/mL (≈ 42.2 to 84.4 µM)	2 to 4 µg/mL (≈ 2.64 to 5.28 µM)	> 128 µg/mL	32 to 64 µg/mL (≈ 42.2 to 84.4 µM)	–	–	–	–
O=C(NCCCS(=O)(=O)N1CCN(C(=O)N[C@H](C(=O)N[C@H]2Cc3ccc(F)c(C(=O)O)c3OB2O)c2ccc(P(=O)(O)O)cc2)C1=O)c1ccc(O)c(O)c1Cl (single isomer, unassigned) [Example 169]	> 128 µg/mL	–	> 128 µg/mL	> 128 µg/mL	50 to 250 µM	> 128 µg/mL	> 128 µg/mL	> 128 µg/mL	> 128 µg/mL	–	–	–	–
O=C(O)c1c(F)ccc2c1OB(O)[C@@H](NC(=O)C(NC(=O)N1CCN(C3CCN(C(=O)Nc4ccc(F)c(O)c4F)CC3)C1=O)c1cc(F)c(O)c(O)c1Cl)C2 (stereo partly drawn) [Example 452, (3R)-3-(2-(2-chloro-5-fluoro-3,4-dihydroxyphenyl)-2-(3-(1-((2,4-difluoro-3-hydroxyphenyl)carbamoyl)piperidin-4-yl)-2-oxoimidazolidine-1-carboxamido)acetamido)-7-fluoro-2-hydroxy-3,4-dihydro-2H-benzo[e][1,2]oxaborinine-8-carboxylic acid]	< 1 µg/mL	10 to 50 µM	< 1 µg/mL	< 1 µg/mL	< 10 µM	< 1 µg/mL	2 to 4 µg/mL (≈ 2.47 to 4.95 µM)	–	< 1 µg/mL	–	–	–	–
O=C(O)c1cccc2c1OB(O)[C@@H](NC(=O)[C@H](NC(=O)N1CCN(S(=O)(=O)c3ccc(O)c(O)c3Cl)C1=O)c1ccc(P(=O)(O)O)cc1)C2 [Example 509, (R)-3-((R)-2-(3-((2-chloro-3,4-dihydroxyphenyl)sulfonyl)-2-oxoimidazolidine-1-carboxamido)-2-(4-phosphonophenyl)acetamido)-2-hydroxy-3,4-dihydro-2H-benzo[e][1,2]oxaborinine-8-carboxylic acid]	< 1 µg/mL	–	< 1 µg/mL	< 1 µg/mL	–	–	< 1 µg/mL	< 1 µg/mL	–	–	< 1 µg/mL	< 1 µg/mL	–
